Earlier results on one molecule are cited in US6559138B1, “3-Desoxy-vitamin D3 analog esters” (Syntex (U.S.A.) LLC, priority 2001, dated 2003).

The subject of data set [1] is women with postmenopausal osteoporosis.
The test system of data set [2] is steroid-induced bone loss. The settings on record: calcitriol 0.5 to 1.0 micrograms/day plus calcium 1000 mg/day, with or without intranasal calcitonin 400 IU/day.

Take `C=C1/C(=C\C=C2/CCC[C@]3(C)[C@@H]([C@H](C)CCCC(C)(C)O)CC[C@@H]23)C[C@@H](O)C[C@@H]1O` [calcitriol, 1,25-dihydroxyvitamin D3]: the hypercalcaemia result in data set [1] (at recommended dosages) was “infrequent and mild”. In addition, the “lower rate of new vertebral fractures compared with patients receiving elemental calcium 1000 mg/day” value in data set [1] (calcitriol 0.25 microgram twice daily, after 3 years of treatment, patients with mild to moderate disease) was 3 fold. Also, the tolerability result in data set [1] (overall) is listed as “well tolerated”. The “effect on steroid-induced bone loss” value in data set [2] was “prevented steroid-induced bone loss”.
